Data taken from US12458581B2, “Carboxylic acid loaded salt carrier and the method for producing thereof” (priority 2021, dated 2025).
Like-named read-outs stand apart in the source and are kept apart here.

Columns and labels:
[1] = pH measurement of 0.1 M aqueous solutions; assay type: physicochemical; details: r.t.; for pH values compound: 0.1 M in millipore water, average of at least three measurements; for pH value / pH value of the reference material (non-loaded carrier salt): 0.1 M; for pH value: compound made via in-situ process
Excerpt: For the pH measurements, a Seven2Go portable pH meter S2 (pH measuring-range: −2 to 20; resolution: 0.01) with an InLab Ultra Micro-ISM electrode (measuring range: pH −1 to pH 11; low temperature membrane glass type; ceramic diaphragm; reference system with Ag^+ ion trap by argenthal) as well as with an in-lab routine pH electrode (measuring range: pH 0 to pH 14; ceramic diaphragm; reference system with Ag^+ ion trap by argenthal) from Mettler-Toledo AG (Analytical, Switzerland) was used.
For sake of comparability, compounds of the same loading ratio n=2, which is 2:1 of the loaded carboxylic acid with respect to the carrier carboxylic acid, were selected for this analysis. […] The analytes were dissolved in millipore water, stirred for 5 minutes in an airtight vial to perform the pH measurements thereafter at r.t. All measurements were performed at 0.1 molar (M) concentration of the samples, which is 0.1 mol per liter (mol/L).
For sake of reliability, every result stated is the average of at least three single measurements. […] The numbers 1-73 (nr., first row) are used as an assignment for the 73 pairs, comprising the compound of invention (third row), the corresponding carrier carboxylic acid (fourth row) and the loaded carboxylic acid (fifth row), as used in the FIG. 6.

[2] = mean particle diameter
[3] = Thermal analysis (TGA/DTA); assay type: physicochemical
Method: Thermal analysis was carried out with a Linseis STA 1600 simultaneous thermal analyzer to determine simultaneous changes of weight (TGA signal) and caloric measurable transformations (DTA signal) in a temperature range between r.t. and 300° C.

Compound | pH values compound [1] | also measured
CC(=O)[O-].CC(=O)[O-].CCC(=O)O.CCC(=O)O.[Mg+2] [MgAc-HProp [2]] | 5.51 | 
CC(=O)O.CC(=O)O.O=C1OC(C(O)CO)C([O-])=C1O.O=C1OC(C(O)CO)C([O-])=C1O.[Ca+2] (centres unmarked) [CaAsc-HAc [2], calcium ascorbate with loaded acetic acid] | 4.42 | 
CC(=O)O.CC(=O)O.CC(=O)O.O=C1OC(C(O)CO)C([O-])=C1O.O=C1OC(C(O)CO)C([O-])=C1O.[Ca+2] (centres unmarked) [CaAsc-HAc [3], calcium ascorbate with loaded acetic acid] | 4.22 | 
CC(=O)O.CCC(=O)O.O=C([O-])C(O)C(O)C(=O)[O-].[Ca+2] (centres unmarked) [CaT-HAc-HProp [1,1], calcium tartrate with loaded acetic acid and propionic acid] | 3.63 | dav [2]: 220 μm; dav ([2]; listed as CaT-HAc—HProp [1,1]): approximately 220 μm; pH value [1]: 3.63
CC(=O)O.CC(=O)O.NC(CCC(=O)[O-])C(=O)[O-].[Ca+2] (centres unmarked) [CaGlu-HAc [2]] | 4.52 | 
CC(=O)[O-].CC(=O)[O-].CCC(=O)O.CCC(=O)O.[Ca+2] [CaAc-HProp [2]] | 5.16 | 
CC(O)C(=O)O.CC(O)C(=O)O.CC(O)C(=O)[O-].CC(O)C(=O)[O-].[Mg+2] (centres unmarked) [MgLac-HLac [2]] | 3.31 | 
CCC(=O)O.CCC(=O)O.O=C([O-])CC(O)C(=O)[O-].[Ca+2] (centres unmarked) [CaM-HProp [2]] | 4.45 | 
CC(=O)O.CC(=O)O.O=C([O-])CCC(=O)[O-].[Mg+2] [MgSuc-HAc [2]] | 4.69 | 
NC(CC(=O)[O-])C(=O)[O-].O=C(O)CO.O=C(O)CO.[Ca+2] (centres unmarked) [CaAsp-HGly [2]] | 3.88 | 
CC(O)C(=O)O.CC(O)C(=O)O.O=C([O-])/C=C/C(=O)[O-].[Mg+2] [MgFum-HLac [2]] | 3.69 | 
CC(=O)O.CC(=O)O.CC(O)C(=O)[O-].CC(O)C(=O)[O-].[Mg+2] (centres unmarked) [MgLac-HAc [2]] | 4.43 | 
CCC(=O)O.CCC(=O)O.O=C([O-])CCC(=O)[O-].[Mg+2] [MgSuc-HProp [2]] | 5.18 | 
CC(=O)O.CC(=O)O.NC(CC(=O)[O-])C(=O)[O-].[Ca+2] (centres unmarked) [CaAsp-HAc [2]] | 4.42 | 
CCC(=O)O.CCC(=O)O.O=C([O-])/C=C/C(=O)[O-].[Ca+2] [CaFum-HProp [2]] | 4.27 | 
CC(=O)O.CC(=O)O.CC(=O)O.CC(=O)O.O=C1OC(C(O)CO)C([O-])=C1O.O=C1OC(C(O)CO)C([O-])=C1O.[Ca+2] (centres unmarked) [CaAsc-HAc [4]] | 4.22 | 
CC(=O)O.CC(=O)O.O=C([O-])c1ccccc1.O=C([O-])c1ccccc1.[Ca+2] [CaBen-HAc [2]] | 4.46 | 
O=CO.O=CO.O=C[O-].O=C[O-].[Mg+2] [MgFo-HFo [2]] | 6.54 | 
CCC(=O)O.CCC(=O)O.O=C([O-])C(O)C(O)C(=O)[O-].[Ca+2] (centres unmarked) [CaT-HProp [2], calcium tartrate with loaded propionic acid] | 3.71 | 
CC(O)C(=O)O.CC(O)C(=O)O.CC(O)C(=O)O.CC(O)C(=O)O.NC(CCC(=O)[O-])C(=O)[O-].[Ca+2] (centres unmarked) [CaGlu-HLac [4]] | 3.60 | 
CC(=O)O.CC(=O)O.CC(=O)[O-].CC(=O)[O-].[Mg+2] [MgAc-HAc [2]] | 5.06 | 
CC(O)C(=O)O.CC(O)C(=O)O.O=C[O-].O=C[O-].[Mg+2] (centres unmarked) [MgFo-HLac [2]] | 3.72 | 
CC(=O)O.CC(=O)O.O=C([O-])/C=C/C(=O)[O-].[Mg+2] [MgFum-HAc [2]] | 4.13 | 
CC(=O)O.CC(=O)O.CC(=O)O.CC(=O)[O-].CC(=O)[O-].[Ca+2] [CaAc-HAc [3]] | 4.62 | 
CCC(=O)O.CCC(=O)O.O=C[O-].O=C[O-].[Mg+2] [MgFo-HProp [2], magnesium formate with loaded propionic acid] | 4.84 | thermal stability of the carrier carboxylic acid salt [3]: up to 300 °C; water release on heating (TGA) ([3]; constant heating, 1° C. to 300° C., FIG. 4(A)): no water is released; total loss of weight (TGA) ([3]; dry sample, heating in the range of 125° C. to 200° C., 2 K/min, nitrogen): 24.4%
CC(O)C(=O)O.CC(O)C(=O)O.CC(O)C(=O)O.CC(O)C(=O)[O-].CC(O)C(=O)[O-].[Ca+2] (centres unmarked) [CaLac-HLac [3]] | 3.38 | 
CC(=O)O.CC(=O)O.CC(=O)O.CC(=O)O.CC(=O)O.O=C([O-])C(O)C(O)C(=O)[O-].[Ca+2] (centres unmarked) [CaT-HAc [5]] | 3.84 | 

Compound | pH values compound [1] | also measured
CCC(=O)O.CCC(=O)O.O=C1OC(C(O)CO)C([O-])=C1O.O=C1OC(C(O)CO)C([O-])=C1O.[Ca+2] (centres unmarked) [CaAsc-HProp [2], calcium ascorbate with loaded propionic acid] | 4.88 | 
CC(=O)O.CC(=O)O.O=C([O-])CCC(=O)[O-].[Ca+2] [CaSuc-HAc [2]] | 4.69 | 
CC(O)C(=O)O.CC(O)C(=O)O.CC(O)C(=O)[O-].CC(O)C(=O)[O-].[Ca+2] (centres unmarked) [CaLac-HLac [2]] | 3.45 | 
CC(=O)O.CC(=O)O.CC(=O)O.CC(=O)O.O=C([O-])C(O)C(O)C(=O)[O-].[Ca+2] (centres unmarked) [CaT-HAc [4], calcium tartrate with loaded acetic acid] | 3.33 | pH value [1]: 3.33
CCC(=O)O.CCC(=O)O.O=C([O-])CCC(=O)[O-].[Ca+2] [CaSuc-HProp [2]] | 5.01 | 
CC(O)C(=O)O.CC(O)C(=O)O.O=C([O-])/C=C/C(=O)[O-].[Ca+2] [CaFum-HLac [2]] | 3.68 | 
CC(O)C(=O)O.CC(O)C(=O)O.CC(O)C(=O)O.CC(O)C(=O)O.CC(O)C(=O)[O-].CC(O)C(=O)[O-].[Ca+2] (centres unmarked) [CaLac-HLac [4]] | 3.30 | 
CC(O)C(=O)O.CC(O)C(=O)O.O=C([O-])C(O)C(O)C(=O)[O-].[Ca+2] (centres unmarked) [CaT-HLac [2], calcium tartrate with loaded lactic acid] | 3.27 | pH value [1]: 3.27
CCC(=O)O.CCC(=O)O.O=C([O-])/C=C/C(=O)[O-].[Mg+2] [MgFum-HProp [2]] | 4.24 | 
O=C([O-])/C=C/C(=O)[O-].O=CO.O=CO.[Ca+2] [CaFum-HFo [2]] | 3.58 | 
CCC(=O)O.CCC(=O)O.O=C([O-])c1ccccc1.O=C([O-])c1ccccc1.[Ca+2] [CaBen-HProp [2]] | 4.64 | 
CC(=O)O.CC(O)C(=O)O.CCC(=O)O.O=C([O-])CC(O)C(=O)[O-].[Ca+2] (centres unmarked) [CaMa-HAc-HProp-HLac [1,1,1]] | 4.97 | 
CC(O)C(=O)[O-].CC(O)C(=O)[O-].CCC(=O)O.CCC(=O)O.[Mg+2] (centres unmarked) [MgLac-HProp [2]] | 4.45 | 
CC(=O)O.CC(=O)O.CC(O)C(=O)[O-].CC(O)C(=O)[O-].[Ca+2] (centres unmarked) [CaLac-HAc [2]] | 4.58 | 
CCC(=O)O.CCC(=O)O.O=C([O-])CO.O=C([O-])CO.[Ca+2] [CaGly-HProp [2]] | 4.63 | 
CC(=O)O.CC(=O)O.O=C[O-].O=C[O-].[Ca+2] [CaFo-HAc [2]] | 4.74 | 
CC(=O)O.CC(=O)O.O=C([O-])/C=C/C(=O)[O-].[Ca+2] [CaFum-HAc [2]] | 4.17 | 
O=C[O-].O=C[O-].[Mg+2] [magnesium formate, reference compound] |  | pH value of the reference material (non-loaded carrier salt) [1]: 7.90
O=C([O-])C(O)C(O)C(=O)[O-].[Ca+2] (centres unmarked) [calcium tartrate, reference compound] |  | pH value of the reference material (non-loaded carrier salt) [1]: 7.33
O=C([O-])/C=C/C(=O)[O-].O=CO.O=CO.[Mg+2] [MgFum-HFo [2]] | 3.76 | 
CC(=O)O.CC(O)C(=O)[O-].CC(O)C(=O)[O-].CCC(=O)O.[Mg+2] (centres unmarked) [MgLac-HAc-HProp [1,1]] | 4.48 | 
CC(=O)O.CC(O)C(=O)O.CCC(=O)O.O=C([O-])C(O)C(O)C(=O)[O-].[Ca+2] (centres unmarked) [CaT-HAc-HPro-HLac [1,1,1]] | 3.33 | 
CC(=O)O.CC(=O)O.O=C[O-].O=C[O-].[Mg+2] [MgFo-HAc [2], magnesium formate with loaded acetic acid] | 5.10 | pH value [1]: 5.10
CC(=O)O.CC(=O)O.O=C([O-])CC(O)C(=O)[O-].[Ca+2] (centres unmarked) [CaMa-HAc [2]] | 4.53 | 
CC(=O)O.CC(=O)O.O=C1OC(C(O)CO)C([O-])=C1O.O=C1OC(C(O)CO)C([O-])=C1O.[Mg+2] (centres unmarked) [MgAsc-HAc [2]] | 4.34 | 
CC(=O)O.CC(=O)O.CC(=O)O.CC(=O)O.CC(=O)O.CC(=O)O.O=C1OC(C(O)CO)C([O-])=C1O.O=C1OC(C(O)CO)C([O-])=C1O.[Ca+2] (centres unmarked) [CaAsc-HAc [6]] | 4.12 | 
